Values joined by “and” are separate entries in the source; they are usually repeats but may differ in a detail not shown here. Equal values may be shown once.
Legend:
HIV = test: microbe, parasite or virus in culture; format: cell-based; details: in vitro acute model
HIV virus, ROJO in PBMC = test: Reverse transcriptase activity against ROJO in PBMC; format: cell-based; set-up: Reverse Transcriptase Activity, Sample 1-3 / Reverse Transcriptase Activity, Mean: unit not given here; details: for Reverse Transcriptase Activity, Sample 1-3: individual samples
[1] = system: Chronic HIV-1 infected cells U1; test: Chronic HIV study, HIV replication in monocytes (U1 cells); format: cell-based
Procedure: (§1) Chronic HIV-1 infected cells U1 were derived from an acute HIV-1 infection of the promonocytic cell line, U937. The chronic HIV-1 infected cells, ACH-2 were derived from an acute HIV-1 infection of the T cell line, A3.01.
(§2) These cells were cultured in medium and the phorbol ester, PMA. PMA causes the cells (both U1 and ACH-2) to be activated and not divide but it also causes the U-1 cells to differentiate. […] Cell viability was measured when these cell lines were treated with the test compound.
(§3) Both cell lines constituitively produce a small amount of HIV-1. ACH-2 cell lines tend to produce more HIV-1 than U1 cells as shown by p-24 ELISA. When either cell line is cultured in the presence of PMA there is an increase in the quantity of HIV-1 produced as measured by the p-24 antigen ELISA.
(§4) In addition, the number of […] positive HIV mRNA expressing cells per microscopic field is measured. Comparisons can be made from these numbers since the same number of cells were adhered to the glass slides for each drug concentration (10×10^6 cells/ml).

[2] = system: chronic HIV-1 infected cells, ACH-2; test: Chronic HIV study, T-cell HIV replication (ACH-2 cells); format: cell-based; details: increase, not suppression
Procedure: as §1, §2, §3, §4

PBMC = test: Toxicity values, XTT-based evaluation (cell titer O.D.), ROJO in PBMC; details: for Toxicity Values (Cell titer), Sample 1-3: individual samples

Structure (SMILES): c1ccc2[nH]c(-c3cscn3)nc2c1 [2-(4-thiazolyl)-1H-benzimidazole]
- inhibition at 60 µg/mL (HIV; Human immunodeficiency virus 1, at 60 μg/ml, read-out: inhibited viral replication): 98%

Structure (SMILES): Cc1cn([C@H]2C[C@H](N=[N+]=[N-])[C@@H](CO)O2)c(=O)[nH]c1=O [AZT, reference compound]
- Reverse Transcriptase Activity, % virus control (HIV virus, ROJO in PBMC; 0.0004 μg/ml): 101.5%
- Reverse Transcriptase Activity, Sample 1-3 (HIV virus, ROJO in PBMC; 0.0004 μg/ml): 1.043 and 0.966 and 1.143
- Reverse Transcriptase Activity, % virus control (HIV virus, ROJO in PBMC; 0.0013 μg/ml): 101.4%
- Reverse Transcriptase Activity, % virus control (HIV virus, ROJO in PBMC; 0.004 μg/ml): 98.5%
- Reverse Transcriptase Activity, Mean (HIV virus, ROJO in PBMC; 0.004 μg/ml): 1.019
- Reverse Transcriptase Activity, Sample 1-3 (HIV virus, ROJO in PBMC; 0.004 μg/ml): 1.005 and 1.004 and 1.048
- Reverse Transcriptase Activity, % virus control (HIV virus, ROJO in PBMC; 0.013 μg/ml): 101.2%
- Reverse Transcriptase Activity, Sample 1-3 (HIV virus, ROJO in PBMC; 0.013 μg/ml): 1.024 and 1.061 and 1.056
- Reverse Transcriptase Activity, % virus control (HIV virus, ROJO in PBMC; 0.04 μg/ml): 0.7%
- Reverse Transcriptase Activity, Mean (HIV virus, ROJO in PBMC; 0.04 μg/ml): 168
- Reverse Transcriptase Activity, Sample 1-3 (HIV virus, ROJO in PBMC; 0.04 μg/ml): 176 and 108 and 220
- Reverse Transcriptase Activity, % virus control (HIV virus, ROJO in PBMC; 0.13 μg/ml): 0.5%
- Reverse Transcriptase Activity, Mean (HIV virus, ROJO in PBMC; 0.13 μg/ml): 110.7
- Reverse Transcriptase Activity, Sample 1-3 (HIV virus, ROJO in PBMC; 0.13 μg/ml): 108 and 168 and 56
- Reverse Transcriptase Activity, % virus control (HIV virus, ROJO in PBMC; 0.4 μg/ml): 0.7%
- Reverse Transcriptase Activity, Mean (HIV virus, ROJO in PBMC; 0.4 μg/ml): 172
- Reverse Transcriptase Activity, Sample 1-3 (HIV virus, ROJO in PBMC; 0.4 μg/ml): 340 and 80 and 96
- Reverse Transcriptase Activity, % virus control (HIV virus, ROJO in PBMC; 1.3 μg/ml): .04%
- Reverse Transcriptase Activity, Mean (HIV virus, ROJO in PBMC; 1.3 μg/ml): 93.3
- Reverse Transcriptase Activity, Sample 1-3 (HIV virus, ROJO in PBMC; 1.3 μg/ml): 68 and 120 and 92
- Reverse Transcriptase Activity, % virus control (HIV virus, ROJO in PBMC; 4 μg/ml): 0.4%
- Reverse Transcriptase Activity, Mean (HIV virus, ROJO in PBMC; 4 μg/ml): 98.7
- Reverse Transcriptase Activity, Sample 1-3 (HIV virus, ROJO in PBMC; 4 μg/ml): 108 and 104 and 84
- inhibited viral replication (HIV; at 1 μg/ml): 98%

Structure (SMILES): COC(=O)Nc1nc2ccccc2[nH]1 [Carbendazim, 2-(methoxycarbonylamino)benzimidazole]
- Reverse Transcriptase Activity, % virus control (HIV virus, ROJO in PBMC; 0.01 μg/ml): 110.4%
- Reverse Transcriptase Activity, Mean (HIV virus, ROJO in PBMC; 0.01 μg/ml): 26107
- Reverse Transcriptase Activity, Sample 1-3 (HIV virus, ROJO in PBMC; 0.01 μg/ml): 24174 and 32124 and 22024
- Reverse Transcriptase Activity, % virus control (HIV virus, ROJO in PBMC; 0.032 μg/ml): 96.6%
- Reverse Transcriptase Activity, Mean (HIV virus, ROJO in PBMC; 0.032 μg/ml): 22851
- Reverse Transcriptase Activity, Sample 1-3 (HIV virus, ROJO in PBMC; 0.032 μg/ml): 23225 and 17108 and 19000
- Reverse Transcriptase Activity, % virus control (HIV virus, ROJO in PBMC; 0.1 μg/ml): 74.1%
- Reverse Transcriptase Activity, Mean (HIV virus, ROJO in PBMC; 0.1 μg/ml): 17513
- Reverse Transcriptase Activity, Sample 1-3 (HIV virus, ROJO in PBMC; 0.1 μg/ml): 1394.0 and 16747 and 12569
- Reverse Transcriptase Activity, % virus control (HIV virus, ROJO in PBMC; 0.32 μg/ml): 47.1%
- Reverse Transcriptase Activity, Mean (HIV virus, ROJO in PBMC; 0.32 μg/ml): 11143
- Reverse Transcriptase Activity, Sample 1-3 (HIV virus, ROJO in PBMC; 0.32 μg/ml): 200 and 8787 and 11249
- Reverse Transcriptase Activity, % virus control (HIV virus, ROJO in PBMC; 1 μg/ml): 3.7%
- Reverse Transcriptase Activity, Mean (HIV virus, ROJO in PBMC; 1 μg/ml): 885.3
- Reverse Transcriptase Activity, Sample 1-3 (HIV virus, ROJO in PBMC; 1 μg/ml): 1394 and 685.0 and 577.0
- Reverse Transcriptase Activity, % virus control (HIV virus, ROJO in PBMC; 3.2 μg/ml): 0.6%
- Reverse Transcriptase Activity, Mean (HIV virus, ROJO in PBMC; 3.2 μg/ml): 138.7
- Reverse Transcriptase Activity, Sample 1-3 (HIV virus, ROJO in PBMC; 3.2 μg/ml): 200 and 100 and 116
- Reverse Transcriptase Activity, % virus control (HIV virus, ROJO in PBMC; 10 μg/ml): 0.6%
- Reverse Transcriptase Activity, Mean (HIV virus, ROJO in PBMC; 10 μg/ml): 153.3
- Reverse Transcriptase Activity, Sample 1-3 (HIV virus, ROJO in PBMC; 10 μg/ml): 136 and 216 and 108
- Reverse Transcriptase Activity, % virus control (HIV virus, ROJO in PBMC; 32 μg/ml): 0.6%
- Reverse Transcriptase Activity, Mean (HIV virus, ROJO in PBMC; 32 μg/ml): 130.7
- Reverse Transcriptase Activity, Sample 1-3 (HIV virus, ROJO in PBMC; 32 μg/ml): 124 and 180 and 88.0
- Reverse Transcriptase Activity, % virus control (HIV virus, ROJO in PBMC; 100 μg/ml): 0.5%
- Reverse Transcriptase Activity, Mean (HIV virus, ROJO in PBMC; 100 μg/ml): 122.7
- Reverse Transcriptase Activity, Sample 1-3 (HIV virus, ROJO in PBMC; 100 μg/ml): 132 and 84.0 and 152.0
- suppressed replication in the HIV monocytes [1]: 9%
- T-cell HIV replication was increased [2]: 44%
- inhibition at 4 µg/mL (HIV; Human immunodeficiency virus 1, at 4 μg/ml, read-out: inhibited viral replication): 100%
- Toxicity Values (Cell titer), Mean (PBMC; 0.01 μg/ml): 1.138 O.D. @ 490/650 nm
- Toxicity Values, % cell control (PBMC; 0.01 μg/ml): 109.9%
- Toxicity Values (Cell titer), Sample 1-3 (PBMC; 0.01 μg/ml): 1.115 O.D. @ 490/650 nm and 1.180 O.D. @ 490/650 nm and 1.118 O.D. @ 490/650 nm
- Toxicity Values (Cell titer), Mean (PBMC; 0.032 μg/ml): 1.182 O.D. @ 490/650 nm
- Toxicity Values, % cell control (PBMC; 0.032 μg/ml): 114.2%
- Toxicity Values (Cell titer), Sample 1-3 (PBMC; 0.032 μg/ml): 1.143 O.D. @ 490/650 nm and 1.198 O.D. @ 490/650 nm and 1.204 O.D. @ 490/650 nm
- Toxicity Values (Cell titer), Mean (PBMC; 0.1 μg/ml): 1.157 O.D. @ 490/650 nm
- Toxicity Values, % cell control (PBMC; 0.1 μg/ml): 111.8%
- Toxicity Values (Cell titer), Sample 1-3 (PBMC; 0.1 μg/ml): 1.145 O.D. @ 490/650 nm and 1.080 O.D. @ 490/650 nm and 1.246 O.D. @ 490/650 nm
- Toxicity Values (Cell titer), Mean (PBMC; 0.32 μg/ml): 1.049 O.D. @ 490/650 nm
- Toxicity Values, % cell control (PBMC; 0.32 μg/ml): 101.4%
- Toxicity Values (Cell titer), Sample 1-3 (PBMC; 0.32 μg/ml): 1.031 O.D. @ 490/650 nm and 1.050 O.D. @ 490/650 nm and 1.067 O.D. @ 490/650 nm
- Toxicity Values (Cell titer), Mean (PBMC; 1 μg/ml): 1.004 O.D. @ 490/650 nm
- Toxicity Values, % cell control (PBMC; 1 μg/ml): 97.0%
- Toxicity Values (Cell titer), Sample 1-3 (PBMC; 1 μg/ml): 1.019 O.D. @ 490/650 nm and 1.003 O.D. @ 490/650 nm and 0.991 O.D. @ 490/650 nm
- Toxicity Values (Cell titer), Mean (PBMC; 3.2 μg/ml): 0.992 O.D. @ 490/650 nm
- Toxicity Values, % cell control (PBMC; 3.2 μg/ml): 95.8%
- Toxicity Values (Cell titer), Sample 1-3 (PBMC; 3.2 μg/ml): 1.013 O.D. @ 490/650 nm and 1.003 O.D. @ 490/650 nm and 0.959 O.D. @ 490/650 nm
- Toxicity Values (Cell titer), Mean (PBMC; 10 μg/ml): 0.944 O.D. @ 490/650 nm
- Toxicity Values, % cell control (PBMC; 10 μg/ml): 91.2%
- Toxicity Values (Cell titer), Sample 1-3 (PBMC; 10 μg/ml): 1.001 O.D. @ 490/650 nm and 0.858 O.D. @ 490/650 nm and 0.973 O.D. @ 490/650 nm
- Toxicity Values (Cell titer), Mean (PBMC; 32 μg/ml): 0.845 O.D. @ 490/650 nm
- Toxicity Values, % cell control (PBMC; 32 μg/ml): 81.6%
- Toxicity Values (Cell titer), Sample 1-3 (PBMC; 32 μg/ml): 0.864 O.D. @ 490/650 nm and 0.835 O.D. @ 490/650 nm and 0.836 O.D. @ 490/650 nm
- Toxicity Values (Cell titer), Mean (PBMC; 100 μg/ml): 0.807 O.D. @ 490/650 nm
- Toxicity Values, % cell control (PBMC; 100 μg/ml): 77.9%
- Toxicity Values (Cell titer), Sample 1-3 (PBMC; 100 μg/ml): 0.839 O.D. @ 490/650 nm and 0.782 O.D. @ 490/650 nm and 0.799 O.D. @ 490/650 nm

— patent US20030149088A1, “HIV treatment” (priority 2000, published 2003)
